{
  "source": "ChEMBL document CHEMBL3046680",
  "about": "“Evidence of stereoselective and segmental-dependant transport of chiral antidiabetic drug nateglinide along the rat small intestine: possible role of efflux transporters” (Med Chem Res, 2013)",
  "key": {"[1]": {"assay": "Apparent permeability across apical to basal side of Sprague-Dawley Rattus norvegicus (rat) normal duodenum sac at 500 ug/ml by HPLC method", "type": "ADME"}, "[2]": {"assay": "Apparent permeability across basal to apical side of Sprague-Dawley Rattus norvegicus (rat) everted jejunum sac at 500 ug/ml by HPLC method", "type": "ADME, tissue-based"}, "[3]": {"assay": "Apparent permeability across apical to basal side of Sprague-Dawley Rattus norvegicus (rat) normal ileum sac at 500 ug/ml by HPLC method", "type": "ADME, tissue-based"}, "[4]": {"assay": "Apparent permeability across basal to apical side of Sprague-Dawley Rattus norvegicus (rat) everted duodenum sac at 500 ug/ml by HPLC method", "type": "ADME"}, "[5]": {"assay": "Apparent permeability across basal to apical side of Sprague-Dawley Rattus norvegicus (rat) everted ileum sac at 500 ug/ml by HPLC method", "type": "ADME, tissue-based"}, "[6]": {"assay": "Apparent permeability across apical to basal side of Sprague-Dawley Rattus norvegicus (rat) normal jejunum sac at 500 ug/ml by HPLC method", "type": "ADME, tissue-based"}, "[7]": {"assay": "Efflux Rattus norvegicus (rat)io of apparent permeability from basal to apical side over apical to basal side of Sprague-Dawley Rattus norvegicus (rat) duodenum sac at 500 ug/ml by HPLC method", "type": "ADME"}, "[8]": {"assay": "Efflux Rattus norvegicus (rat)io of apparent permeability from basal to apical side over apical to basal side of Sprague-Dawley Rattus norvegicus (rat) jejunum sac at 500 ug/ml by HPLC method", "type": "ADME, tissue-based"}, "[9]": {"assay": "Efflux Rattus norvegicus (rat)io of apparent permeability from basal to apical side over apical to basal side of Sprague-Dawley Rattus norvegicus (rat) […] sac at 500 ug/ml by HPLC method", "type": "ADME, tissue-based, Ileum"}, "[10]": {"assay": "(§1) Apparent permeability across apical to basal side of Sprague-Dawley Rattus norvegicus (rat) normal jejunum sac at 1 mg/ml by HPLC method", "type": "ADME, tissue-based", "details": "Sprague-Dawley"}, "[11]": {"assay": "(§2) Apparent permeability across apical to basal side of Sprague-Dawley Rattus norvegicus (rat) normal duodenum sac at 1 mg/ml by HPLC method", "type": "ADME", "details": "Sprague-Dawley"}, "[12]": {"assay": "(§3) Apparent permeability across basal to apical side of Sprague-Dawley Rattus norvegicus (rat) everted jejunum sac at 1 mg/ml by HPLC method", "type": "ADME, tissue-based", "details": "Sprague-Dawley"}, "[13]": {"assay": "(§4) Efflux Rattus norvegicus (rat)io of apparent permeability from basal to apical side over apical to basal side of Sprague-Dawley Rattus norvegicus (rat) jejunum sac at 1 mg/ml by HPLC method", "type": "ADME, tissue-based", "details": "Sprague-Dawley"}, "[14]": {"assay": "(§5) Apparent permeability across apical to basal side of Sprague-Dawley Rattus norvegicus (rat) normal ileum sac at 1 mg/ml by HPLC method", "type": "ADME, tissue-based", "details": "Sprague-Dawley"}, "[15]": {"assay": "(§6) Efflux Rattus norvegicus (rat)io of apparent permeability from basal to apical side over apical to basal side of Sprague-Dawley Rattus norvegicus (rat) duodenum sac at 1 mg/ml by HPLC method", "type": "ADME", "details": "Sprague-Dawley"}, "[16]": {"assay": "(§7) Efflux Rattus norvegicus (rat)io of apparent permeability from basal to apical side over apical to basal side of Sprague-Dawley Rattus norvegicus (rat) ileum sac at 1 mg/ml by HPLC method", "type": "ADME, tissue-based", "details": "Sprague-Dawley"}, "[17]": {"assay": "(§8) Apparent permeability across basal to apical side of Sprague-Dawley Rattus norvegicus (rat) everted duodenum sac at 1 mg/ml by HPLC method", "type": "ADME", "details": "Sprague-Dawley"}, "[18]": {"assay": "(§9) Apparent permeability across basal to apical side of Sprague-Dawley Rattus norvegicus (rat) everted ileum sac at 1 mg/ml by HPLC method", "type": "ADME, tissue-based", "details": "Sprague-Dawley"}, "Jejunum [19]": {"test_system": "Jejunum", "assay": "as §1", "type": "ADME, tissue-based"}, "Duodenum [20]": {"test_system": "Duodenum", "assay": "as §2", "type": "ADME"}, "Jejunum [21]": {"test_system": "Jejunum", "assay": "as §3", "type": "ADME, tissue-based"}, "Jejunum [22]": {"test_system": "Jejunum", "assay": "as §4", "type": "ADME, tissue-based"}, "Ileum [23]": {"test_system": "Ileum", "assay": "as §5", "type": "ADME, tissue-based"}, "Duodenum [24]": {"test_system": "Duodenum", "assay": "as §6", "type": "ADME"}, "Ileum [25]": {"test_system": "Ileum", "assay": "as §7", "type": "ADME, tissue-based"}, "Duodenum [26]": {"test_system": "Duodenum", "assay": "as §8", "type": "ADME"}, "Ileum [27]": {"test_system": "Ileum", "assay": "as §9", "type": "ADME, tissue-based"}, "[28]": {"assay": "Dissociation constant, pKa of the compound", "type": "physicochemical"}, "[29]": {"assay": "Oral bioavailability in Homo sapiens (human)", "type": "ADME, organism-based", "details": "in vivo"}, "[30]": {"assay": "Tmax in Homo sapiens (human)", "type": "ADME, organism-based", "details": "in vivo"}, "[31]": {"assay": "Elimination half life in Homo sapiens (human)", "type": "ADME, organism-based", "details": "in vivo, read-out: beta t1/2 (converted)"}},
  "data": [
    {"smiles": "CC(C)[C@H]1CC[C@H](C(=O)N[C@@H](Cc2ccccc2)C(=O)O)CC1", "note": "[(S)-NATEGLINIDE]", "values": [
      {"measurement": "Papp A→B at 500 ug/ml", "setting": "[1]", "result": 140, "unit": "×10⁻⁶ cm/s"},
      {"measurement": "Papp B→A at 500 ug/ml", "setting": "[2]", "result": 220, "unit": "×10⁻⁶ cm/s"},
      {"measurement": "Papp A→B at 500 ug/ml", "setting": "[3]", "result": 100, "unit": "×10⁻⁶ cm/s"},
      {"measurement": "Papp B→A at 500 ug/ml", "setting": "[4]", "result": 210, "unit": "×10⁻⁶ cm/s"},
      {"measurement": "Papp B→A at 500 ug/ml", "setting": "[5]", "result": 380, "unit": "×10⁻⁶ cm/s"},
      {"measurement": "Papp A→B at 500 ug/ml", "setting": "[6]", "result": 130, "unit": "×10⁻⁶ cm/s"},
      {"measurement": "efflux ratio at 500 ug/ml", "setting": "[7]", "result": 1.4},
      {"measurement": "efflux ratio at 500 ug/ml", "setting": "[8]", "result": 1.7},
      {"measurement": "efflux ratio at 500 ug/ml", "setting": "[9]", "result": 3.8}
    ]},
    {"smiles": "CC(C)[C@H]1CC[C@H](C(=O)N[C@H](Cc2ccccc2)C(=O)O)CC1", "note": "(racemic; form 1) [NATEGLINIDE]", "values": [
      {"measurement": "Papp A→B at 1 mg/ml", "setting": "[10]", "result": 230, "unit": "×10⁻⁶ cm/s"},
      {"measurement": "Papp A→B at 1 mg/ml", "setting": "[11]", "result": 260, "unit": "×10⁻⁶ cm/s"},
      {"measurement": "Papp B→A at 1 mg/ml", "setting": "[12]", "result": 340, "unit": "×10⁻⁶ cm/s"},
      {"measurement": "efflux ratio at 1 mg/ml", "setting": "[13]", "result": 1.4},
      {"measurement": "Papp A→B at 1 mg/ml", "setting": "[14]", "result": 190, "unit": "×10⁻⁶ cm/s"},
      {"measurement": "efflux ratio at 1 mg/ml", "setting": "[15]", "result": 1.3},
      {"measurement": "efflux ratio at 1 mg/ml", "setting": "[16]", "result": 3.1},
      {"measurement": "Papp B→A at 1 mg/ml", "setting": "[17]", "result": 350, "unit": "×10⁻⁶ cm/s"},
      {"measurement": "Papp B→A at 1 mg/ml", "setting": "[18]", "result": 590, "unit": "×10⁻⁶ cm/s"}
    ]},
    {"smiles": "CC(C)[C@H]1CC[C@H](C(=O)N[C@H](Cc2ccccc2)C(=O)O)CC1", "note": "(racemic; form 2) [NATEGLINIDE]", "values": [
      {"measurement": "Papp", "setting": "Jejunum [19]", "result": 2.2, "unit": "×10⁻⁴ cm/s"},
      {"measurement": "Papp", "setting": "Duodenum [20]", "result": 2.4, "unit": "×10⁻⁴ cm/s"},
      {"measurement": "Papp", "setting": "Jejunum [21]", "result": 3.6, "unit": "×10⁻⁴ cm/s"},
      {"measurement": "Ratio", "setting": "Jejunum [22]", "result": 1.5},
      {"measurement": "Papp", "setting": "Ileum [23]", "result": 1.3, "unit": "×10⁻⁴ cm/s"},
      {"measurement": "Ratio", "setting": "Duodenum [24]", "result": 1.4},
      {"measurement": "Ratio", "setting": "Ileum [25]", "result": 3.5},
      {"measurement": "Papp", "setting": "Duodenum [26]", "result": 3.4, "unit": "×10⁻⁴ cm/s"},
      {"measurement": "Papp", "setting": "Ileum [27]", "result": 3.6, "unit": "×10⁻⁴ cm/s"}
    ]},
    {"smiles": "CC(C)[C@H]1CC[C@H](C(=O)N[C@H](Cc2ccccc2)C(=O)O)CC1", "note": "[NATEGLINIDE]", "values": [
      {"measurement": "Papp A→B at 500 ug/ml", "setting": "[1]", "result": 150, "unit": "×10⁻⁶ cm/s"},
      {"measurement": "Papp B→A at 500 ug/ml", "setting": "[2]", "result": 240, "unit": "×10⁻⁶ cm/s"},
      {"measurement": "Papp A→B at 500 ug/ml", "setting": "[3]", "result": 90, "unit": "×10⁻⁶ cm/s"},
      {"measurement": "Papp B→A at 500 ug/ml", "setting": "[4]", "result": 250, "unit": "×10⁻⁶ cm/s"},
      {"measurement": "Papp B→A at 500 ug/ml", "setting": "[5]", "result": 440, "unit": "×10⁻⁶ cm/s"},
      {"measurement": "pKa", "setting": "[28]", "result": 3.1},
      {"measurement": "bioavailability", "setting": "[29]", "result": 70, "unit": "%"},
      {"measurement": "Papp A→B at 500 ug/ml", "setting": "[6]", "result": 120, "unit": "×10⁻⁶ cm/s"},
      {"measurement": "efflux ratio at 500 ug/ml", "setting": "[7]", "result": 1.6},
      {"measurement": "Tmax", "setting": "[30]", "result": 30, "unit": "min"},
      {"measurement": "half-life", "setting": "[31]", "result": 84, "unit": "min"},
      {"measurement": "efflux ratio at 500 ug/ml", "setting": "[8]", "result": 2},
      {"measurement": "efflux ratio at 500 ug/ml", "setting": "[9]", "result": 4.8}
    ]}
  ]
}
